According to patent US7220832B2, “Dermacentor variabilis GABA-gated chloride channels” (priority 2000, dated 2007):

Test system: D. variabilis GABA-gated chloride channel
Assay: Two-microelectrode voltage clamp recording of Xenopus laevis oocytes injected with Dv8, Dv9 or Dv5 mRNA
Type: cell-based, Dermacentor variabilis
Conditions: for current in response to application of compound: 1 mM, oocytes expressing Dv8 and Dv9 (SEQ. ID. NOs. 1 and 2), holding potential 0 or -30 mV; for block of the GABA-activated current: current activated by 1 mM GABA
Experimental: Functional expression of a D. variabilis GABA-gated chloride channel was observed using MRNA encoding for the polypeptide of SEQ. ID. NOs. 1, 2, and 3 injected into Xenopus laevis oocytes. MRNA encoding for SEQ. ID. NOs. 1, 2, and 3 were obtained using the Dv8, Dv9, and Dv5 clones as described in Example 1.
Xenopus laevis oocytes were prepared and injected using standard methods previously described. (Arena et al., Mol. Pharmaco. 40:368-374, 1991; and Arena et al., Mol. Brain Res. 15:339-348, 1992.) Adult female Xenopus laevis were anesthetized with 0.17% tricaine methanesulfonate and the ovaries were surgically removed and placed in a solution consisting of (mM): NaCl 82.5, KCl 2, MgCl2 1, HEPES 5, NaPyruvate 2.5, Penicillin G. 100,000 units/L, Streptomycin Sulfate 1000 mg/L, pH 7.5 (Mod. OR-2).
Ovarian lobes were broken open, rinsed several times in Mod. OR-2, and incubated in 0.2% collagenase (Sigma, Type1) in Mod. OR-2 at room temperature with gentle shaking. After 1 hour the collagenase solution was renewed and the oocytes were incubated for an additional 30-90 minutes until approximately 50% of the oocytes were released from the ovaries. Stage V and VI oocytes were selected and placed in media containing (mM): NaCl 96, KCl 2, MgCl2 1, CaCl2 1.8, HEPES 5, NaPyruvate 2.5, theophylline 0.5, gentamicin […], pH 7.5 (ND-96) for 16-24 hours before injection. Oocytes were injected with 50 nl of Dv8, Dv9, or Dv5 RNA at a concentration of 0.2 mg/ml. Oocytes were incubated at 18° C. for 1-6 days in ND-96 before recording.
Recordings were made at room temperature in modified ND-96 consisting of (mM): NaCl 96, MgCl2 1, CaCl2 0.1, BaCl2 3.5, HEPES 5, pH 7.5. Oocytes were voltage clamped using a Dagan CA1 two microelectrode amplifier (Dagan Corporation, Minneapolis, Minn.) interfaced to a Macintosh 7100/80 computer. The current passing electrode was filled with 0.7 M KCl, 1.7 M KCitrate, and the voltage recording electrode was filled with 1 M KCl. Throughout the experiment oocytes were superfused with modified ND-96 (control solution) or with ND-96 containing potential channel activators and blockers at a rate of approximately 3 ml/min. Data were acquired at 100 Hz and filtered at 33.3 Hz using Pulse software from HEKA Elektronik (Lambrecht, Germany). All recordings were performed from a holding potential of either 0 or −30 mV.
During a 60s application of GABA approximately 50% of the current desensitized and the remaining current deactivated rapidly upon wash-out of GABA. Repeated applications of 1 mM GABA elicited similar responses. […] Oocytes injected with Dv5 mRNA responded similarly to oocytes injected with Dv8 and Dv9 mRNA (data not shown).

With NCCCC(=O)O [GABA, γ-Aminobutric acid] the “current in response to application of compound” value was “rapidly activating current” and the “fraction of the current desensitized during application” value (60s application of 1 mM GABA, oocytes expressing Dv8 and Dv9) was “approximately 50%”.
In the case of N#Cc1nn(-c2c(Cl)cc(C(F)(F)F)cc2Cl)c(N)c1[S+]([O-])C(F)(F)F (centres unmarked) [fipronil], the “block of the GABA-activated current” value (5 μM, FIG. 5, channel of SEQ. ID. NO. 2 (Dv9)) is reported as “blocked completely”.
N[C@@H](CCC(=O)O)C(=O)O [glutamate] was tested, and the “current in response to application of compound” value was “did not activate a current”.
In the case of C=C(C)[C@@H]1[C@H]2OC(=O)[C@@H]1[C@]1(O)C[C@H]3O[C@]34C(=O)O[C@H]2[C@]14C [picrotoxinin], the “block of the GABA-activated current” value (10 μM, data not shown) is reported as “blocked completely”.
